Reference: patent publication US20230090691A1, “COMPOSITIONS AND METHODS FOR PROMOTING AND/OR MAINTAINING VAGINOVULVAL AND PERIANAL TISSUE VITALITY AND TISSUE HEALTH” (SPINART, LLC, priority 2021, published 2023)
Where “and” joins values, the source holds several entries; their conditions need not be identical. Identical values can stand only once. Entries after “also recorded” stand apart in the source; their conditions may differ.

Assays:
[1] = tested on: urogenital atrophy in breast cancer patients; conditions: study of 46 patients; compared to saline; cited from earlier work
[2] = tested on: human keratinocytes (HaCaT); assay: Wound-healing (scratch) assay; format: cell-based; conditions: for wound area Basal (0 h): 20 ng/ml wells, immediately after wounding; for wound area Basal (0 h) / % area wound 24 h / % relative Area to Control 24 h / % wound healing 24 h / wound area 24 h: replicates; for wound healing enhanced, compared to the untreated control / Decreased wound area / % area wound 24 h / % relative Area to Control 24 h / % wound healing 24 h / wound area 24 h: 20 ng/ml; for wound healing enhanced, compared to the untreated control: 24 hours; for Decreased wound area: 24 hr
Description: An in vitro scratch assay was used to study cell migration in vitro. [Todaro, G J et al. The initiation of cell division in a contact-inhibited mammalian cell line. J. Cell Physiol. (1965) 66: 325-33]. This method is based on the observation that, upon creation of a new artificial gap or “scratch”, on a confluent cell monolayer, the cells on the edge of the newly created gap will move toward the opening to close the “scratch” until new cell-cell contacts are established. One of the major advantages of this simple method is that it mimics to some extent migration of cell in vivo. For example, removal of part of the endothelium in blood vessels will induce migration of endothelial cells (ECs) into the denuded area to close the wound [Haudenschild, C. et al. Endothelial regeneration. II. Restitution of endothelial continuity. Lab. Invest. (1979) 41: 407-18]. Furthermore, the patterns of migration either as a loosely connected population (e.g., fibroblasts) or as sheets of cells (e.g., epithelial and EECs) also mimic the behavior of these cells during migration in vivo. The scratch assay is particularly suitable to study the regulation of cell migration by cell interaction with extracellular matrix (ECM) and cell-cell interactions.
For the wound-healing assay, HaCaT keratinocytes were seeded overnight in DMEM medium supplemented with 10% fetal bovine serum (FBS) at 80% confluence (190,000 cells per well. The next day, a 2 mm wound was made over the confluent monolayer using a 1 ml pipete tip. Test samples were added to the HaCaT cells, supplemented with 0.5% FBS. The untreated control was 0.5% FBS.
Images were taken before and after 24 hours of treatment, and wound area was quantified using ImageJ software. All data were statistically analyzed.
For seeding cells, cell numbers and viability were determined using Trypan-Blue staining; cells were counted in a Bürker chamber under the microscope. Human keratinocytes (HaCaT cells) were seeded overnight in DMEM medium supplemented with 10% fetal bovine serum (FBS).
Parallel lines were drawn at the bottom of the wells (3 mm separated lines outside the plate). These lines were used as boundaries for scratch images, thus providing an accurate analysis in each well. Cells were seeded at 190,000 cells/well to promote the formation of a monolayer and kept at 37 C for 24 h. Then, 2 mm-wide wounds were made in the confluent monolayer. Wells were washed once with PBS and refilled with DMEM+0.5% FBS. Basal images were taken immediately using a microscope. […] In addition, human epidermal growth factor (hEGF) at 20 ng/ml was included as a positive control, and 0.5% FBS as a basal control.
Plates were placed in the 37° C. incubator and incubated for 24 h to allow the scratch to heal. Microscopic images are shown below. One biological replicate was performed and four technical replicates per condition were used.
Data analysis was performed using ImageJ software. Microscopic images are shown in Results. Statistical analysis (ordinary one-way ANOVA test) was performed to determine the significance between tested samples and basal control.
The percentage of wound area in each well at 24 hr was calculated by dividing the wound area at 24 hr and the wound area immediately after making the wound. The mean value for the four replicates in the Basal Control (untreated) group was obtained and used to normalize each measure in all of the samples and conditions. A bar graph was generated to represent the wound area or wound healing in each of the tested conditions.

[3] = experiment with RS-0198A and RS-0198B

## CCN(CC)CC(=O)Nc1c(C)cccc1C [lidocaine]
[1]
  patients with reduced dyspareunia: 90%

## EGF: human epidermal growth factor, positive control at 20 ng/ml
[2]
  wound area Basal (0 h): 1324098 pixels and 1346138 pixels and 1134400 pixels and 1741659 pixels
  % area wound 24 h: 19.877% and 29.524% and 18.706% and 6.405%
  % relative Area to Control 24 h: 42.310% and 62.846% and 39.818% and 13.633%
  % wound healing 24 h: 57.690% and 37.154% and 60.182% and 86.367%
  wound area 24 h: 263185 pixels and 397433 pixels and 212198 pixels and 111545 pixels
[2]; listed as C + EGF
  wound area Basal (0 h): 1188450 pixels and 1278864 pixels and 1237384 pixels and 1227903 pixels
  % area wound 24 h: 27.291% and 2.058% and 0.000% and 5.244%
  % relative Area to Control 24 h: 89.630% and 6.758% and 0.000% and 17.222%
  % wound healing 24 h: 10.370% and 93.242% and 100.000% and 82.778%
  wound area 24 h: 24456 pixels and 0 pixels (2×) and 64389 pixels
[2]; experiment with RS012221
  wound healing enhanced, compared to the untreated control: 94.0±8.6%
  Decreased wound area: 94.0±8.6%
[2]; [3]
  wound healing enhanced, compared to the untreated control: 60.4±15.7%
  Decreased wound area: 60.4 ± 15.7%
[2]; 24 hr treatment of HaCaT, compared to the untreated control
  wound area (result in words): significantly decreased wound area
[2]; 24 h treatment of HaCaT, compared to untreated control, concentrations as in the sentence, listed as hEGF
  wound healing (result in words): enhanced wound healing; also recorded: boosted wound healing
